From US8729083B2, “Pyrazole compounds for controlling invertebrate pests” (BASF SE, priority 2008, dated 2014)

Assays:
Type in all cases: in vivo
Aphis gossypii = assay: Cotton aphid (Aphis gossypii, mixed life stages), method b: electrostatic spray; settings: 120 h, sprayed, after 5 days, read-out: mortality in comparison with untreated controls
Experimental: II.1 Cotton Aphid (Aphis gossypii, Mixed Life Stages)
(§1) The active compounds were formulated in cyclohexanone as a 10,0000 ppm solution supplied in 1.3 ml ABgene® tubes. These tubes were inserted into an automated electrostatic sprayer equipped with an atomizing nozzle and they served as stock solutions for which lower dilutions were made in 50% acetone:50% water (v/v). A nonionic surfactant (Kinetic®) was included in the solution at a volume of 0.01% (v/v).
Cotton plants at the cotyledon stage were infested with aphids prior to treatment by placing a heavily infested leaf from the main aphid colony on top of each cotyledon. Aphids were allowed to transfer overnight to accomplish an infestation of 80-100 aphids per plant and the host leaf was removed. The infested plants were then sprayed by an automated electrostatic plant sprayer equipped with an atomizing spray nozzle. The plants were dried in the sprayer fume hood, removed from the sprayer, and then maintained in a growth room under fluorescent lighting in a 24 hr photoperiod at 25° C. and 20-40% relative humidity. Aphid mortality on the treated plants, relative to mortality on untreated control plants, was determined after 5 days.

Myzus persicae [1] = assay: Green peach aphid (Myzus persicae, mixed life stages), method b: electrostatic spray on bell pepper; settings: 120 h, sprayed, after 5 days, read-out: mortality in comparison with untreated controls
Experimental: II.2 Green Peach Aphid (Myzus persicae, Mixed Life Stages)
as §1
Bell pepper plants at the first true-leaf stage were infested prior to treatment by placing heavily infested leaves from the main colony on top of the treatment plants. Aphids were allowed to transfer overnight to accomplish an infestation of 30-50 aphids per plant and the host leaves were removed. The infested plants were then sprayed by an automated electrostatic plant sprayer equipped with an atomizing spray nozzle. The plants were dried in the sprayer fume hood, removed, and then maintained in a growth room under fluorescent lighting in a 24-hr photoperiod at 25° C. and 20-40% relative humidity. Aphid mortality on the treated plants, relative to mortality on untreated control plants, was determined after 5 days.

Aphis craccivora = assay: Cowpea aphid (Aphis craccivora), spray on potted cowpea plants; settings: sprayed, population reduction assessed after 24, 72 and 120 hours, read-out: mortality in comparison with untreated controls
Experimental: II.3 Cowpea Aphid (Aphis craccivora)
The active compounds were formulated in 50:50 (vol:vol) acetone:water. The test solution was prepared at the day of use.
Potted cowpea plants colonized with 100-150 aphids of various stages were sprayed after the pest population had been recorded. Population reduction was assesed after 24, 72, and 120 hours.

Megoura viciae = assay: Vetch aphid (Megoura viciae), bean leaf disks in microtiterplates; settings: foliar, 144 h, test solution 2500 mg/L, leaf disks sprayed with 2.5 μl, 6 days
Experimental: II.5 Vetch Aphid (Megoura viciae)
The active compounds were formulated in 1:3 (vol:vol) DMSO:water with different concentrations of formulated compounds.
Bean leaf disks were placed into microtiterplates filled with 0.8% agar-agar and 2.5 ppm OPUS™. The leaf disks were sprayed with 2.5 μl of the test solution and 5 to 8 adult aphids were placed into the microtiterplates which were then closed and kept at 23±1° C. and 50±5% relative humidity under fluorescent light for 6 days. Mortality was assessed on the basis of vital, reproduced aphids. Aphid mortality and fecundity was then visually assessed.

Anthonomus grandis = assay: Boll weevil (Anthonomus grandis), eggs on insect diet in microtiter plates; settings: 120 h, test solution 2500 mg/L, 20 μl sprayed onto diet, 5 days, read-out: mortality (egg and larval)
Experimental: II.6 Boll Weevil (Anthonomus grandis)
The compounds were formulated in 75:25 (vol:vol) water:DMSO.
For evaluating control of boll weevil (Anthonomus grandis) the test unit consisted of 24-well-microtiter plates containing an insect diet and 20-30 A. grandis eggs. Different concentrations of formulated compounds were sprayed onto the insect diet at 20 μl, using a custom built micro atomizer, at two replications. After application, the microtiter plates were incubated at 23±1° C. and 50±5% relative humidity for 5 days. Egg and larval mortality was then visually assessed.

Myzus persicae [2] = assay: Green peach aphid (Myzus persicae) through systemic means, artificial diet under membrane; settings: 72 h, pipetted into aphid diet, 3 days, read-out: mortality in comparison with untreated controls
Source text: II.9 Activity Against Green Peach Aphid (Myzus persicae)
For evaluating control of green peach aphid (Myzus persicae) through systemic means the test unit consisted of 96-well-microtiter plates containing liquid artificial diet under an artificial membrane.
The compounds were formulated using a solution containing 75% v/v water and 25% v/v DMSO. Different concentrations of formulated compounds were pipetted into the aphid diet, using a custom built pipetter, at two replications. After application, 5 to 8 adult aphids were placed on the artificial membrane inside the microtiter plate wells The aphids were then allowed to suck on the treated aphid diet and incubated at about 23+1° C. and about 50+5% relative humidity for 3 days. Aphid mortality and fecundity was then visually assessed.

Dichromothrips Corbetti = assay: Vanda/orchid thrips (Dichromothrips corbetti), dipped orchid petals; settings: after 72 hours, read-out: mortality in comparison with untreated controls
Experimental: II.11 Activity Against Vanda/Orchid Thrips (Dichromothrips Corbetti)
The active compounds were formulated as a 50:50 (vol:vol) acetone:water solution. Surfactant (Alkamuls EL 620) was added at the rate of 0.1% (vol/vol). Vanda orchids petals were cleaned, washed and air dried prior to spraying. Petals were dipped into the test solution for 3 seconds, air dried, placed inside a resealable plastic and inoculated with 20 adults. The treated petals were kept inside the holding room at 28-29° C. and relative humidity of 50-60%. Percent mortality was recorded after 72 hours.

In the case of Cc1c(C(=O)Nc2ccnnc2)cnn1CC(F)(F)F [Compound 1, 5-Methyl-1-(2,2,2-trifluoroethyl)-1H-pyrazole-4-carboxylic acid pyridazin-4-ylamide], the mortality at 300 ppm (Aphis gossypii) is reported as ≥ 75%, the mortality at 300 ppm (Myzus persicae [1]) is reported as ≥ 75% and the mortality at 300 ppm (Aphis craccivora) is reported as ≥ 90%. The mortality at 2500 µg/mL (Megoura viciae) was ≥ 90%, the mortality at 2500 µg/mL (Anthonomus grandis) was ≥ 50% and the mortality at 2500 ppm (Myzus persicae [2]) was 100%. The mortality at 500 ppm (Dichromothrips Corbetti) was ≥ 50%.
